# Results: US20070015823A1, “Ambruticin VS compounds” (priority 2004, published 2007)
# Like-named read-outs stand apart in the source and are kept apart here.
# Assays:
# A. fumigatus ATCC 204305 = assay: Broth microdilution antifungal susceptibility, NCCLS M38-A; format: cell-based, Aspergillus fumigatus; conditions: for MIC0 A. fumigatus ATCC 204305: minimal concentration inhibiting >95% growth, average of at least two assays (except I-l and I-x)
# C. immitis = assay: microbe, parasite or virus in culture; format: cell-based, Coccidioides immitis
# Candida albicans = conditions: for MIC C. albicans 24433: strain 24433; for MIC C. albicans 24433 / MIC C. albicans 90028: 50% growth inhibition, range = minimum and maximum of multiple assays; for MIC C. albicans 90028 / MIC0 C. albicans 90028: strain 90028; for MIC0 C. albicans 90028: 95% growth inhibition
# C. posadasii = assay: microbe, parasite or virus in culture; format: cell-based, Coccidioides posadasii
# Candida krusei = conditions: for MIC0 C. krusei 6258: strain 6258, 95% growth inhibition
# Fusarium solani = assay: Broth microdilution antifungal susceptibility, NCCLS M38-A; format: cell-based; conditions: for MIC F. solani 96-1: strain 96-1, 50% growth inhibition, range = minimum and maximum of multiple assays
# S. apiospermum = assay: as above; format: cell-based, Scedosporium apiospermum; conditions: for MIC: Scedosporium apiospermum
# Cryptococcus neoformans = assay: as above; conditions: for MIC C. neoformans 97-14: strain 97-14; for MIC C. neoformans 97-14 / MIC C. neoformans 11239 / MIC C. neoformans 11240: 50% growth inhibition, range = minimum and maximum of multiple assays; for MIC C. neoformans 11239: strain 11239; for MIC C. neoformans 11240: strain 11240; for MIC: Cryptococcus neoformans
# A. flavus ATCC 204304 = assay: as above; format: cell-based, Aspergillus flavus; conditions: for MIC0 A. flavus ATCC 204304: minimal concentration inhibiting >95% growth, average of at least two assays (except I-l and I-x)
# Blastomyces dermatitidis = assay: as above; format: cell-based; conditions: for MIC: Blastomyces dermatitidis
# Candida parapsilosis [1] = conditions: strain 92019; 95% growth inhibition
# Histoplasma capsulatum = format: cell-based
# [2] = tested on: Trichophyton mentagrophytes; assay: Dermatophyte broth microdilution, NCCLS M38-A; format: cell-based
# Microsporum canis = assay: Dermatophyte broth microdilution, NCCLS M38-A; format: cell-based
# Microsporum gypseum = assay: Dermatophyte broth microdilution, NCCLS M38-A; format: cell-based
# Trichophyton rubrum = assay: Dermatophyte broth microdilution, NCCLS M38-A; format: cell-based
# Epidermophyton floccosum = assay: Dermatophyte broth microdilution, NCCLS M38-A; format: cell-based
# [3] = tested on: Trichophyton interdigitale; assay: Dermatophyte broth microdilution, NCCLS M38-A; format: cell-based
# Candida parapsilosis [4] = assay: microbe, parasite or virus in culture; conditions: Lodderomyces parapsilosis, read-out: MIC0 C. parapsilosis 92019
smiles,measurement,setting,value
"C[C@@H]1[C@H](O)[C@@H](C)/C=C/C=C/C=C/C=C/C=C/C=C/C=C/[C@H](O[C@@H]2O[C@H](C)[C@@H](O)[C@H](N)[C@@H]2O)C[C@@H]2O[C@](O)(C[C@@H](O)C[C@@H](O)[C@H](O)CC[C@@H](O)C[C@@H](O)CC(=O)O[C@H]1C)C[C@H](O)[C@H]2C(=O)O [Amphotericin B, reference compound]",MIC0 A. fumigatus ATCC 204305,A. fumigatus ATCC 204305,1.53 µg/mL
same,MIC C. immitis RMS 2281,"C. immitis; strain RMS 2281, 80% growth inhibition",1 µg/mL
same,MIC C. immitis RS,"C. immitis; strain RS, 80% growth inhibition",1 µg/mL
same,MIC C. immitis S46,"C. immitis; strain S46, 80% growth inhibition",1 µg/mL
same,MIC C. albicans 24433,Candida albicans,2 to 4 µg/mL
same,MIC C. albicans 90028,Candida albicans,2 to 4 µg/mL
same,MIC0 C. albicans 90028,Candida albicans,1 µg/mL
same,MIC C. posadasii C735,"C. posadasii; strain C735, 80% growth inhibition",1 µg/mL
same,MIC C. posadasii RMSCC 2127,"C. posadasii; strain RMSCC 2127, 80% growth inhibition",1 µg/mL
same,MIC C. posadasii Silveria,"C. posadasii; strain Silveria, 80% growth inhibition",1 µg/mL
same,MIC0 C. krusei 6258,Candida krusei,1 µg/mL
same,MIC F. solani 96-1,Fusarium solani,1 to 2 µg/mL
same,MIC S. apiospermum 94-54,"S. apiospermum; strain 94-54, 50% growth inhibition, range = minimum and maximum of multiple assays",>32 µg/mL
same,MIC S. apiospermum 98-38,"S. apiospermum; strain 98-38, 50% growth inhibition, range = minimum and maximum of multiple assays",4 µg/mL
same,MIC S. apiospermum 98-89,"S. apiospermum; strain 98-89, 50% growth inhibition, range = minimum and maximum of multiple assays",8 µg/mL
same,MIC C. neoformans 97-14,Cryptococcus neoformans,0.5 to 2 µg/mL
same,MIC C. neoformans 11239,Cryptococcus neoformans,0.5 to 1 µg/mL
same,MIC C. neoformans 11240,Cryptococcus neoformans,0.5 to 1 µg/mL
same,MIC0 A. flavus ATCC 204304,A. flavus ATCC 204304,1.67 µg/mL
same,MIC B. dermatitidis Gu,"Blastomyces dermatitidis; strain Gu, 50% growth inhibition",2 µg/mL
same,MIC B. dermatitidis Kr,"Blastomyces dermatitidis; strain Kr, 50% growth inhibition",1 µg/mL
same,MIC B. dermatitidis V,"Blastomyces dermatitidis; strain V, 50% growth inhibition",1 µg/mL
same,MIC0 C. parapsilosis 92019,Candida parapsilosis [1],1 µg/mL
same,MIC H. capsulatum G217B,"Histoplasma capsulatum; strain G217B, 50% growth inhibition",0.19 µg/mL
same,MIC H. capsulatum GS20,"Histoplasma capsulatum; strain GS20, 50% growth inhibition",0.19 µg/mL
"CC[C@H]1O[C@@H](/C(C)=C/[C@H](C)/C=C/[C@H]2[C@@H](C)[C@@H]2/C=C/[C@@H]2O[C@H](CC(=O)O)C[C@H](N(C)C(C)C)[C@H]2O)CC=C1C [I-v, (5S,6R)-5-(N-isoproyl-methylamino)-6-hydroxypolyangioic acid]",MIC0 A. fumigatus ATCC 204305,A. fumigatus ATCC 204305,1.32 µg/mL
same,MIC C. immitis RMS 2281,C. immitis,0.125 µg/mL
same,MIC C. immitis RS,C. immitis,0.25 µg/mL
same,MIC C. immitis S46,C. immitis,0.125 µg/mL
same,MIC0 Tm,[2],4 µg/mL
same,MIC0 Mc,Microsporum canis,2 µg/mL
same,MIC C. albicans 24433,Candida albicans,>32 µg/mL
same,MIC C. albicans 90028,Candida albicans,>32 µg/mL
same,MIC C. posadasii C735,C. posadasii,0.25 µg/mL
same,MIC C. posadasii RMSCC 2127,C. posadasii,0.125 µg/mL
same,MIC C. posadasii Silveria,C. posadasii,0.25 µg/mL
same,MIC F. solani 96-1,Fusarium solani,>16 µg/mL
same,MIC0 Mg,Microsporum gypseum,2 µg/mL
same,MIC S. apiospermum 94-54,S. apiospermum,>16 µg/mL
same,MIC S. apiospermum 98-38,S. apiospermum,>16 µg/mL
same,MIC S. apiospermum 98-89,S. apiospermum,0.25 µg/mL
same,MIC C. neoformans 97-14,Cryptococcus neoformans,0.5 µg/mL
same,MIC C. neoformans 11239,Cryptococcus neoformans,0.25 µg/mL
same,MIC C. neoformans 11240,Cryptococcus neoformans,0.25 to 0.5 µg/mL
same,MIC0 A. flavus ATCC 204304,A. flavus ATCC 204304,1.1 µg/mL
same,MIC0 Blastomyces dermatitidis 04-2167,Blastomyces dermatitidis,0.06 µg/mL
same,MIC0 Blastomyces dermatitidis 04-2508,Blastomyces dermatitidis,0.06 µg/mL
same,MIC0 Blastomyces dermatitidis 04-2915,Blastomyces dermatitidis,0.125 µg/mL
same,MIC0 Blastomyces dermatitidis 05-106,Blastomyces dermatitidis,0.03 µg/mL
same,MIC0 Blastomyces dermatitidis 05-186,Blastomyces dermatitidis,0.06 µg/mL
same,MIC0 Blastomyces dermatitidis 05-1391,Blastomyces dermatitidis,0.03 µg/mL
same,MIC0 Blastomyces dermatitidis 05-1707,Blastomyces dermatitidis,≦0.015 μg/mL
same,MIC0 Blastomyces dermatitidis 05-1820,Blastomyces dermatitidis,0.06 µg/mL
same,MIC0 Blastomyces dermatitidis 05-1829,Blastomyces dermatitidis,0.06 µg/mL
same,MIC0 Blastomyces dermatitidis 05-2020,Blastomyces dermatitidis,0.06 µg/mL
same,MIC0 Blastomyces dermatitidis R-3529,Blastomyces dermatitidis,0.063 µg/mL
same,MIC0 Blastomyces dermatitidis R-35629,Blastomyces dermatitidis,0.03 µg/mL
same,MIC B. dermatitidis Gu,Blastomyces dermatitidis,12.5 µg/mL
same,MIC B. dermatitidis Kr,Blastomyces dermatitidis,>12.5 µg/mL
same,MIC B. dermatitidis V,Blastomyces dermatitidis,12.5 µg/mL
same,MIC0 Tr,Trichophyton rubrum,5.03 µg/mL
same,MIC H. capsulatum G217B,Histoplasma capsulatum,<0.19 µg/mL
same,MIC H. capsulatum GS20,Histoplasma capsulatum,<0.19 µg/mL
"CC[C@H]1O[C@@H](/C(C)=C/[C@H](C)/C=C/[C@H]2[C@@H](C)[C@@H]2/C=C/[C@@H]2O[C@H](CC(=O)O)C[C@H](N)[C@H]2O)CCC1C (some centres unmarked) [IV-a, 20,21-dihydro ambruticin VS-5]",MIC0 A. fumigatus ATCC 204305,A. fumigatus ATCC 204305,0.85 µg/mL
same,MIC2 C. immitis 05-469,C. immitis,≦0.15 μg/mL
same,MIC2 C. immitis 05-955,C. immitis,≦0.15 μg/mL
same,MIC2 C. immitis 05-1387,C. immitis,≦0.15 μg/mL
same,MIC0 Tm,[2],1 µg/mL
same,MIC0 Mc,Microsporum canis,0.5 µg/mL
same,MIC2 C. albicans 05-1422,Candida albicans; strain 05-1422,≦0.15 μg/mL
same,growth of Candida albicans strain 05-1422,"Candida albicans; strain 05-1422, statement in words",inhibits growth
same,MIC2 C. albicans 05-1424,Candida albicans; strain 05-1424,>10 µg/mL
same,MIC2 C. albicans 05-1426,Candida albicans; strain 05-1426,>10 µg/mL
same,MIC0 C. albicans 90028,Candida albicans,>32 µg/mL
same,MIC0 C. krusei 6258,Candida krusei,>32 µg/mL
same,MIC0 Ef,Epidermophyton floccosum,4 µg/mL
same,MIC0 Ti,[3],0.39 µg/mL
same,MIC0 Mg,Microsporum gypseum,0.5 µg/mL
same,MIC0 A. flavus ATCC 204304,A. flavus ATCC 204304,0.18 µg/mL
same,MIC2 B. dermatitidis 05-106,Blastomyces dermatitidis,≦0.15 μg/mL
same,MIC2 B. dermatitidis 05-186,Blastomyces dermatitidis,≦0.15 μg/mL
same,MIC2 B. dermatitidis 05-1291,Blastomyces dermatitidis,≦0.15 μg/mL
same,MIC0 Tr,Trichophyton rubrum,0.5 µg/mL
same,MIC0 C. parapsilosis 92019,Candida parapsilosis [1],<0.0625 µg/mL
same,MIC2 H. capsulatum 05-959,Histoplasma capsulatum,≦0.15 μg/mL
same,MIC2 H. capsulatum 05-1097,Histoplasma capsulatum,≦0.15 μg/mL
same,MIC2 H. capsulatum 05-1159,Histoplasma capsulatum,≦0.15 μg/mL
"CCC(C)n1ncn(-c2ccc(N3CCN(c4ccc(OCC5COC(Cn6cncn6)(c6ccc(Cl)cc6Cl)O5)cc4)CC3)cc2)c1=O (centres unmarked) [Itraconazole, reference compound]",MIC,"A. fumigatus ATCC 204305; Aspergillus fumigatus, ATCC204305, read-out: MIC0 A. fumigatus ATCC 204305",0.58 µg/mL
same,MIC,Candida parapsilosis [4],0.25 µg/mL
same,MIC,"Candida albicans; Candida albicans, read-out: MIC0 C. albicans 90028",0.25 µg/mL
same,MIC,"Candida krusei; Pichia kudriavzevii, read-out: MIC0 C. krusei 6258",0.25 µg/mL
same,MIC,"Fusarium solani; Fusarium solani, read-out: MIC F. solani 96-1",> 4 µg/mL
same,MIC,S. apiospermum; read-out: MIC S. apiospermum 98-38,1 to 4 µg/mL
same,MIC,S. apiospermum; read-out: MIC S. apiospermum 98-89,1 to 2 µg/mL
same,MIC,Cryptococcus neoformans; read-out: MIC C. neoformans 97-14,0.125 µg/mL
same,MIC,Cryptococcus neoformans; read-out: MIC C. neoformans 11239,0.031 µg/mL
same,MIC,Cryptococcus neoformans; read-out: MIC C. neoformans 11240,0.313 µg/mL
same,MIC,"A. flavus ATCC 204304; Aspergillus flavus, ATCC204304, read-out: MIC0 A. flavus ATCC 204304",0.47 µg/mL
same,MIC,Blastomyces dermatitidis; read-out: MIC0 Blastomyces dermatitidis 04-2167,0.03 µg/mL
same,MIC,Blastomyces dermatitidis; read-out: MIC0 Blastomyces dermatitidis 04-2508,0.03 µg/mL
same,MIC,Blastomyces dermatitidis; read-out: MIC0 Blastomyces dermatitidis 04-2915,0.06 µg/mL
same,MIC,Blastomyces dermatitidis; read-out: MIC0 Blastomyces dermatitidis 05-106,0.06 µg/mL
same,MIC,Blastomyces dermatitidis; read-out: MIC0 Blastomyces dermatitidis 05-186,0.06 µg/mL
same,MIC,Blastomyces dermatitidis; read-out: MIC0 Blastomyces dermatitidis 05-1391,0.03 µg/mL
same,MIC,Blastomyces dermatitidis; read-out: MIC0 Blastomyces dermatitidis 05-1707,≤ 0.015 µg/mL
same,MIC,Blastomyces dermatitidis; read-out: MIC0 Blastomyces dermatitidis 05-1820,≤ 0.015 µg/mL
same,MIC,Blastomyces dermatitidis; read-out: MIC0 Blastomyces dermatitidis 05-1829,0.06 µg/mL
same,MIC,Blastomyces dermatitidis; read-out: MIC0 Blastomyces dermatitidis 05-2020,≤ 0.015 µg/mL
same,MIC,Blastomyces dermatitidis; read-out: MIC0 Blastomyces dermatitidis R-3529,≤ 0.015 µg/mL
same,MIC,Blastomyces dermatitidis; read-out: MIC0 Blastomyces dermatitidis R-35629,≤ 0.015 µg/mL
